We go through one compound from patent US11628168B2, “Medical application of pyrimidine sulfonamides derivatives” (CHINESE PLA GENERAL HOSPITAL, priority 2018, dated 2023).

What all share (format): in vivo, SD rats
Assay [1] deals with right ventricular hypertrophy of rats in low-pressure low-oxygen cabin. The assay is described as follows: Rat right ventricular hypertrophy index, low-pressure low-oxygen model. To be noted: for Full heart / RV (weight of the right ventricles) / RV/(LV + IS) right ventricular hypertrophy index: x±s. On the procedure: (§1) 40 healthy SD rats (180-220 g, male) are purchased from Beijing Vital River Laboratory Animal Technology Co. Ltd, belong to the SPF grade and have the license number of SCXK(Jing)2016-0006. The healthy SD rats are fed in a low-pressure oxygen cabin, and regularly fed with a complete nutritional feed under the conditions of the temperature of 22 to 25° C. and the humidity of 30% to 50%.
(§2) Solvent configuration: 5% of DMSO and 95% of normal saline with 10% of HP-β-CD, and pH=9.
(§3) An experimental group A: a low-pressure low-oxygen cabin, and intragastric administration of sc0062 (15 mg/kg) as well as a solvent
(§4) An experimental group B: a low-pressure low-oxygen cabin, and intragastric administration of sc0062 (30 mg/kg) as well as a solvent
(§5) 40 rats are randomly divided into four groups, each group includes 10 rats, 3 groups are placed into a low-pressure low-oxygen cabin, the pressure of the oxygen cabin is regulated to 380 mmHg, a high altitude environment with an altitude of 5,500 meters is simulated, the low-pressure low-oxygen cabin is opened for 1 hour every day so as to add foods and water for animals and carry out corresponding medicine treatment, and meanwhile, the environment where the rats are positioned are kept alternate day and night according to a ratio of 12 h:12 h. After 3 groups of rats are in the oxygen-poor environment for 14 days, intragastric administration is respectively carried out on the 3 groups of rats, the solvent (the model group), the sc0062 (15 mg/kg) and the solvent (the experimental group A) and the sc0062 (30 mg/kg) and the solvent (the experimental group B) are respectively applied to the 3 groups of rats, and the operation is continued for 14 days. Rats in the fourth group (the blank control group) are placed in the same room to be fed in the normal-pressure normal-oxygen environment.
(§6) 3% pentobarbital sodium (0.2 mL/100 g) is intraperitoneally injected to anesthetize the rats, ultrasonic detection is carried out, and the following ultrasonic data is recorded: PAT/PET (pulmonary arterial blood flow acceleration time/right ventricular […]); right ventricular ejection fraction EF; a right ventricular fractional shortening FS; and tricuspid annular plane systolic excursion TAPSE. The anesthetize rats are fixed on an operating table in a supine position mode, tracheotomy is carried out, a breathing machine is connected, and thoracotomy is carried out to expose the hearts. A catheter is inserted into each right ventricle, and the right ventricular systolic pressure is recorded. Then each catheter is slowly pushed forwards, can reach a corresponding pulmonary artery through a corresponding right ventricular outflow tract, the pressure waveform of a monitor is observed, and the mean pulmonary arterial pressure mPAP is recorded. Blood is collected and the rats are executed. The hearts and the lung tissue are taken out, the atrial tissue and the root of the main artery are removed, left and right ventricles are separated, bloodstain is washed out in PBS, moisture is sucked up by filter paper, and the weight of the right ventricles (RV) and the weight of the left ventricles and the […] (LV+IS) are respectively weighed. Calculation is carried out according to the following formula: right ventricular hypertrophy index=RV/(LV+IS).
(§7) All the data is represented by x±s, comparison among the groups is single factor analysis of variance, when P<0.05, it represents that the difference has a statistical significance, and statistical treatment is carried out by adopting an SPSS 22.0 software package.

Assay [2] concerns pulmonary arterial hypertension of model rats. The assay can be described thus: Rat haemodynamics: mean pulmonary arterial pressure by right heart catheter, low-pressure low-oxygen model. Particulars: for mPVP: x±s. The method, then: as §1, §2, §3, §4
40 rats are randomly divided into four groups, each group includes 10 rats, 3 groups are placed into a low-pressure low-oxygen cabin, the pressure of the oxygen cabin is regulated to 380 mmHg, a high altitude environment with an altitude of 5,500 meters is simulated, the low-pressure low-oxygen cabin is opened for 1 hour every day so as to add foods and water for animals and carry out corresponding medicine treatment, and meanwhile, the environment where the rats are positioned are kept alternate day and night according to a ratio of 12 h:12 h. […]
3% pentobarbital sodium (0.2 mL/100 g) is intraperitoneally injected to anesthetize the rats, ultrasonic detection is carried out, and the following ultrasonic data is recorded: PAT/PET (pulmonary arterial blood flow acceleration time/right ventricular […]); right ventricular ejection fraction EF; a right ventricular fractional shortening FS; and tricuspid annular plane systolic excursion TAPSE. […] A catheter is inserted into each right ventricle, and the right ventricular systolic pressure is recorded. Then each catheter is slowly pushed forwards, can reach a corresponding pulmonary artery through a corresponding right ventricular outflow tract, the pressure waveform of a monitor is observed, and the mean pulmonary arterial pressure mPAP is recorded. […]

Assay [3] has as its system right ventricular function of rats in low-pressure low-oxygen cabin. The assay is described as follows: Echocardiography of rats in low-pressure low-oxygen cabin (simulated altitude 5,500 m). To be noted: x±s. The method, then:
as §1, §2, §3, §4, §5, §6, §7

[4] abbreviates: 15 mg/kg intragastric for 14 days after 14 days hypoxia (380 mmHg).
Setting [5] is: 30 mg/kg intragastric for 14 days after 14 days hypoxia (380 mmHg).

With `COCCNS(=O)(=O)Nc1ncnc(OCCOc2ncc(Br)cn2)c1-c1ccc2c(c1)OCO2` [sc0062], in assay [1] (setting [4]), the Full heart is recorded as 1.47 ± 0.24, the “RV (weight of the right ventricles)” value was determined as 0.56 ± 0.09 and the “RV/(LV + IS) right ventricular hypertrophy index” value came to 0.38 ± 0.02. In addition, in assay [1] (setting [5]), the Full heart was 1.30 ± 0.21, the “RV (weight of the right ventricles)” value is recorded as 0.48 ± 0.11 and the “RV/(LV + IS) right ventricular hypertrophy index” value was 0.36 ± 0.02. Besides, the “right ventricular hypertrophy index compared with the model group” value in assay [1] (experimental groups A and B (15 and 30 mg/kg), p<0.05) is on record as “reduced”. The mPVP in assay [2] (setting [4]) stood at 31.39 ± 3.90. This compound also had a mPVP in assay [2] (setting [5]) of 26.91 ± 4.35. In addition, in assay [2] (experimental groups A and B (15 and 30 mg/kg), p<0.01), the “mean pulmonary arterial pressure compared with the model group” value is recorded as “significantly raised”. For the same compound, in assay [3] (setting [4]), the PAT/PET was 0.39 ± 0.07, the “Right ventricular EF” value is listed as 67.25 ± 13.01, the “Right ventricular FS” value is listed as 37.02 ± 10.63 and the TAPSE is 2.05 ± 0.29. In addition, in assay [3] (setting [5]), the PAT/PET is reported as 0.40 ± 0.07, the “Right ventricular EF” value is reported as 71.32 ± 9.35, the “Right ventricular FS” value is given as 39.76 ± 7.24 and the TAPSE was 1.93 ± 0.44.
